Reference: article PMC12406258, “Uncovering the Unusual Inhibition Mechanism of a Trypanosome Alternative Oxidase Inhibitor Displaying Broad-Spectrum Activity against African Animal Trypanosomes” (Journal of Medicinal Chemistry, 2025)

Test system: T. evansi WT
Assay: Resazurin-based drug sensitivity assay, T. evansi WT
Assay type: cell-based
Procedure: Other Trypanosoma species used in this study include T. evansi AntTat 3/3 (Wild-type); and T. equiperdum BoTat 1 (Bordeaux trypanozoon antigenic type 1) P (wild-type). All the trypanosomes were used only as bloodstream trypomastigotes and cultured in the standard Hirumi’s Modified Iscove’s medium #9 (HMI-9), supplemented with 10% heat-inactivated Fetal Bovine Serum (FBS), 14 μL/L β-mercaptoethanol, and 3.0 g sodium hydrogen carbonate per liter of medium (pH 7.4). Trypanosomes were cultured in vented flasks at 37 °C in a 5% CO2 atmosphere.
Briefly, this protocol involves preparing a 96-well cell culture plate with a 100 μL serially diluted test compound (200 μM top concentration) in HMI-9 + 10% FBS (24 wells per control drug or test compound, with the 24th well serving as drug-free). This is followed by adjusting the cell density of mid-log-phase trypanosome cultures to the required concentration of 2 × 10^5 cells/mL (2 × 10^4 cells/well). […] All incubations were carried out at 37 °C with 5% CO2. […] EC50 values were calculated using GraphPad Prism 9.0 software via nonlinear regression with an equation for a sigmoidal dose–response curve with variable slope (GraphPad Software Inc., San Diego, CA, USA).

`Cc1cc(O)ccc1C(=O)OCCCCCCCCCCCCCC[P+](c1ccccc1)(c1ccccc1)c1ccccn1.[Br-]` [Compound 1, {14-[(4-Hydroxy-2-methylbenzoyl)-oxy]-tetradecyl}-diphenyl(pyridin-2-yl)-Phosphonium Bromide] was tested, and the EC50 was 1.2 ± 0.1 nM.
